The source of these data is US20080038838A1, “Dioxin-Binding Material and Method of Detecting or Quantifying Dioxin” (Towa Kagaku Co., Ltd., priority 2003, published 2008).

Assay [1] is described as follows: method of competitive dioxin binding on bead (2,3,7,8-TeCDD). As to conditions: for capability of detecting 2,3,7,8-TeCDD compared with DB2: 30% 1,4-dioxane solvent. The protocol: (§1) 1 ml of a screening solvent containing 4 nM NBD-labeled dichlorophenol and 0-100 nM of a substance to be detected was prepared in a glass vial, and then three dioxin-binding peptide beads were put into the screening solvent. The resulting mixture was incubated, with mild shaking, overnight at room temperature, and then fluorescent microscope images thereof were recorded. The average fluorescence intensity of each bead was calculated from the recorded images. Calculation of the average fluorescence intensity was performed with an image analysis/measurement software, “Image-Pro Plus” (Planetron, Inc.). When competitive binding of the dichlorophenol with a dioxin occurs, the fluorescence intensity of each bead decreases depending on the concentration of the dioxin. Such a method of measuring the dioxin concentration utilizing the quenching phenomenon of the beads was termed “the method of competitive dioxin binding on bead”.
The DB2 peptide was evaluated for affinity to dioxins by the method of competitive dioxin binding on bead. FIGS. 6 (A) and 6 (B) show the results of tests conducted in a solvent containing 30% 1,4-dioxane. The relationship between dioxin concentration and average fluorescence intensity is plotted in FIG. 6 (A). As shown in the figure, declining sigmoid curves, which are characteristic of the competitive binding, were obtained. The curves were fitted using the four-parameter logistic equation, y=(a−d)/(1+(x/c)^b)+d, which is an empirical equation typically employed in competitive ELISA (Eiji Ishikawa, “Enzyme Immunoassay (3rd Edition)”, IGAKU-SHOIN).
(§2) The quenching ratio was calculated using the equation shown below. The beads were evaluated for affinity with the substances detected based on the values of quenching ratios.
(§3) quenching ratio=(fluorescence intensity 1−fluorescence intensity 2)/fluorescence intensity 1×100(%)
The binding constants of the DB2 peptide were calculated using the results of the above equation. Fitting was performed based on the theoretical equation for one-to-one binding of a receptor with a ligand as shown below:
(§4) Tests were conducted on the above-mentioned peptides by the method of competitive dioxin binding on bead described in Example 2, using a 30% 1,4-dioxane solvent. […] All the four kinds of single residue-substituted peptides were evaluated for dioxin binding capability by the method of competitive dioxin binding on bead.

The nature of assay [2]: fluorescent staining of peptide beads with NBD-labeled dichlorophenol. It is filed as binding. As to conditions: 30% 1,4-dioxane solvent (FIG. 10). As for the experimental part:
About 2.5 million peptide beads were used for screening, the number being equal to the number of combinations of all the sequences of peptides comprising 5 amino acid residues. The primary screening was conducted in a screening solvent (a 10 mM phosphate buffer containing 20% 1,4-dioxane (pH: 8)) containing 4 nM NBD-labeled dichlorophenol. 20 ml of the buffer solution was first mixed with about 50 mg of the peptide beads, and the mixture was subsequently incubated overnight, with mild shaking, in a petri dish at room temperature. A fraction of fluorescently stained peptide beads observed by a fluorescent microscope was collected with a micropipette. These peptide beads were transferred into a micro test tube containing 50 or 100% 1,4-dioxane, and were then incubated overnight at room temperature, i.e., washing with 50 or 100% dioxane overnight at room temperature. Peptide beads which were unable to be washed, on which the NBD-labeled dichlorophenol was unspecifically adsorbed, were excluded. Peptide beads that could be washed were re-stained with 1 nM NBD-labeled dichlorophenol. In order to measure the fluorescence intensity, fluorescent microscope images of the peptide beads were recorded with a digital camera (FIG. 4).
as §1
A library of twenty-one kinds of single amino acid-substituted peptides shown in FIG. 8 was constructed in order to evaluate the importance of each amino acid of the obtained oligopeptides, and to optimize the sequences. […]
as §4

Assay [3] can be described thus: secondary screening of peptide beads: fluorescence decrease by competition with 2,3,7-TriCDD. It is filed as binding. The following applies: 1 nM NBD-labeled dichlorophenol, 10 mM phosphate buffer pH 8 with 20% 1,4-dioxane. From the text: A peptide library was constructed by split-and-pool synthesis, one of the typical techniques of combinatorial chemistry, using beads for peptide solid-phase synthesis. According to the present method, a peptide of one kind of sequence is synthesized on a single bead. […] Primary screening involved screening of fluorescently stained peptide beads, using a composite (FIG. 3) obtained by labeling 3,4-dichlorophenol, which has an analogous structure to dioxins, with NBD as a fluorescent material.
About 2.5 million peptide beads were used for screening, the number being equal to the number of combinations of all the sequences of peptides comprising 5 amino acid residues. […] In order to measure the fluorescence intensity, fluorescent microscope images of the peptide beads were recorded with a digital camera (FIG. 4).
The aforementioned washable peptide beads were put into 1 ml of a screening solvent containing 1 nM NBD-labeled dichlorophenol and 10 or 100 nM 2,3,7-trichlorodibenzo-p-dioxin (2,3,7-TriCDD). The mixture was incubated overnight with mild shaking at room temperature, and was then transferred onto a glass petri dish, and fluorescent microscope images thereof were recorded. The obtained images were compared with the images recorded in the previous test so as to screen decreased beads. […]

The nature of assay [4]: method of competitive dioxin binding on bead (2,3,7-TriCDD). The protocol:
1 ml of a screening solvent containing 4 nM NBD-labeled dichlorophenol and 0-100 nM of a substance to be detected was prepared in a glass vial, and then three dioxin-binding peptide beads were put into the screening solvent. The resulting mixture was incubated, with mild shaking, overnight at room temperature, and then fluorescent microscope images thereof were recorded. The average fluorescence intensity of each bead was calculated from the recorded images. Calculation of the average fluorescence intensity was performed with an image analysis/measurement software, “Image-Pro Plus” (Planetron, Inc.). When competitive binding of the dichlorophenol with a dioxin occurs, the fluorescence intensity of each bead decreases depending on the concentration of the dioxin. […]
The DB2 peptide was evaluated for affinity to dioxins by the method of competitive dioxin binding on bead. […] The relationship between dioxin concentration and average fluorescence intensity is plotted in FIG. 6 (A). […]
as §2, §3
The binding constants of the DB2 peptide were calculated using the results of the above equation. […]

Where [5] appears, read: 30% 1,4-dioxane, 4 nM NBD-labeled dichlorophenol, 0-100 nM substance.
Setting [6] is: peptide beads, solvent containing 30% 1,4-dioxane, fit of quenching ratio to one-to-one binding equation.

Where “and” joins values, the source holds several entries; their conditions need not be identical. Equal values may be shown once. Entries after “also recorded” stand apart in the source; their conditions may differ. Square brackets hold non-standard residues; d marks the D form. Ends that are not written are not given here. Cha = N[C@@H](CC1CCCCC1)C(=O)O; Phg = N[C@H](C(=O)O)c1ccccc1; Nva = CCC[C@H](N)C(=O)O

As for “Cha Leu Asp Gln Val ([Cha]LDQV) [SEQ ID No. 5]”, in assay [1], the “capability of detecting 2,3,7,8-TeCDD compared with DB2” value (“capability … compared with DB2” below) is “equal to or more than that of DB2”. Also, the “fluorescence intensity when stained, compared with DB2 peptide” value in assay [2] is “equal to or greater than that of the DB2 peptide”.
For “Phe Leu Asp Gln Leu (FLDQL) [SEQ ID No. 23]”, in that order: “equal to or more than that of DB2” and “equal to or greater than that of the DB2 peptide”.
For “Phe Leu Asp Gln Nva (FLDQ[Nva]) [SEQ ID No. 24]” the same measures were “equal to or more than that of DB2” and “equal to or greater than that of the DB2 peptide”.
As to “Phe Leu Asp Gln Phg (FLDQ[Phg]) [SEQ ID No. 22]”, the “2,3,7,8-TeCDD concentration that can be detected” value in assay [1] (30% 1,4-dioxane) was 0.15 nM and 0.05 ng/ml. Also, in assay [1], the “capability … compared with DB2” value is “equal to or more than that of DB2”. For the same substance, in assay [1] (30% dioxane solvent), the “detection sensitivity to 2,3,7,8-TeCDD relative to DB2” value was “about ten times greater than that of DB2; also recorded: about ten times higher than that of DB2”. Further, the “fluorescence intensity when stained, compared with DB2 peptide” value in assay [2] was “equal to or greater than that of the DB2 peptide”.
For Phe-Leu-Asp-Gln-Ile (FLDQI) [DB1], the “capability … compared with DB2” value in assay [1] is “equal to or more than that of DB2”. The “quenching by competition with 10 nM 2,3,7-TriCDD” value in assay [3] is “confirmed”.
In the case of Phe-Leu-Asp-Gln-Val (FLDQV) [DB2], the “2,3,7,8-TeCDD concentration that can be detected” value in assay [1] (30% 1,4-dioxane) was 1 nM and about 0.3 ng/ml. For the same substance, the “concentration-dependent quenching by 2,3,7,8-TeCDD” value in assay [1] (setting [5]) is given as “Concentration-dependent quenching was observed”. The “affinity (binding constant Ka) for 2,3,7,8-TeCDD” value in assay [1] (setting [6]) was 1.7e+09 M⁻¹. For the same substance, the “concentration-dependent quenching by 2,3,7-TriCDD” value in assay [4] (setting [5]) was “Concentration-dependent quenching was observed”. For the same substance, the “affinity (binding constant Ka) for 2,3,7-TriCDD” value in assay [4] (setting [6]) was 2e+08 M⁻¹. In addition, the “quenching by competition with 10 nM 2,3,7-TriCDD” value in assay [3] is “confirmed”.
